# Measurements taken from patent US20170247458A1, “Safety for Treating Cancers with a Glycosylated Chimeric Antibody to EGFR” (Sorrento Therapeutics, Inc., priority 2016, published 2017).
# Legend:
# [1] = tested on: EGFR positive, metastatic colorectal cancer; test: Phase 2/3 study, radiologic response and survival
# [2] = human, in vivo
# [3] = Phase 2/3 study, safety evaluation and adverse events; settings: Table 7
compound,measurement,setting,value
"CCc1c2c(nc3ccc(OC(=O)N4CCC(N5CCCCC5)CC4)cc13)-c1cc3c(c(=O)n1C2)COC(=O)[C@]3(O)CC [Irinotecan monotherapy, irinotecan]","Complete response, number of patients",[1]; Ph2/3 trial,1
same,"Complete response, rate in parentheses",[1]; Ph2/3 trial,0.6
same,"Partial response, number of patients",[1]; Ph2/3 trial,20
same,"Partial response, rate in parentheses",[1]; Ph2/3 trial,12.2
same,"Progressive disease, number of patients",[1]; Ph2/3 trial,44
same,"Progressive disease, rate in parentheses",[1]; Ph2/3 trial,26.8
same,"Stable disease, number of patients",[1]; Ph2/3 trial,86
same,"Stable disease, rate in parentheses",[1]; Ph2/3 trial,52.4
same,Time to disease progression,[1]; Ph2/3 trial,4.1 months
same,"Unable to evaluate, number of patients",[1]; Ph2/3 trial,13
same,"Unable to evaluate, rate in parentheses",[1]; Ph2/3 trial,7.9
same,"Overall response rate, number of patients",[1]; sum of CR and PR,21
same,"Overall response rate, rate in parentheses","[1]; sum of CR and PR, interval in brackets not copied",12.8
same,"Disease control rate, number of patients","[1]; sum of CR, PR and SD",107
same,"Disease control rate, rate in parentheses","[1]; sum of CR, PR and SD, interval in brackets not copied",65.2
same,"At least one ADR, number of patients",[2],126
same,"At least one ADR, share of patients",[2],74.1%
same,"At least one AE which lead to stop drug treatment, number of patients",[2],27
same,"At least one AE which lead to stop drug treatment, share of patients",[2],15.9%
same,"At least one AE, number of patients",[2],148
same,"At least one AE, share of patients",[2],87.1%
same,"At least one Level □ or above ADR, number of patients",[2],10
same,"At least one Level □ or above ADR, share of patients",[2],5.9%
same,"At least one Level □ or above AE, number of patients",[2],12
same,"At least one Level □ or above AE, share of patients",[2],7.1%
same,"At least one Level □ or above important AE, number of patients",[2],11
same,"At least one Level □ or above important AE, share of patients",[2],6.5%
same,"At least one SAE, number of patients",[2],8
same,"At least one SAE, share of patients",[2],4.7%
same,"At least one important AE, number of patients",[2],120
same,"At least one important AE, share of patients",[2],70.6%
same,"At least one test drug-related SAE, number of patients",[2],1
same,"At least one test drug-related SAE, share of patients",[2],0.6%
same,"Grade 3-4 Abdominal pain, number",[2],0
same,"Grade 3-4 Acne-like rash, number",[2],0
same,"Grade 3-4 Anemia, number",[2],3
same,"Grade 3-4 Anemia, value in parentheses",[2],(1.8)
same,"Grade 3-4 Asthenia, number",[2],6
same,"Grade 3-4 Asthenia, value in parentheses",[2],(3.7)
same,"Grade 3-4 Diarrhea, number",[2],12
same,"Grade 3-4 Diarrhea, value in parentheses",[2],(7.3)
same,"Grade 3-4 Fever, number",[2],1
same,"Grade 3-4 Fever, value in parentheses",[2],(0.9)
same,"Grade 3-4 Nausea and vomiting, number",[2],16
same,"Grade 3-4 Nausea and vomiting, value in parentheses",[2],(9.8)
same,"Grade 3-4 Neutropenia, number",[2],14
same,"Grade 3-4 Neutropenia, value in parentheses",[2],(8.5)
same,"Grade 3-4 Stomatitis, number",[2],0
same,"Grade 3-4 Thrombocytopenia, number",[2],0
same,"Grade 3-4 adverse events, Any, number",[2],57
same,"Test drug-related death AE, number of patients",[3],0
